Source: patent US8772480B2, “Inhibitors of PI3 kinase and/or mTOR” (priority 2009, dated 2014)

How the values were obtained:
[1] = test system: phosphorylation of Akt at Serine 473 in U87 MG cells; assay: cells; conditions: Homo sapiens, U-87 MG, 2 h, read-out: U87Cell IC50, pAkt (Ser 473), U87 MG cells, two hours with compound
[2] = molecular target: PI3Kα (Homo sapiens (Human), UniProt P42336); conditions: read-out: PI3Kα AlphaScreen ® Ki
Chain of PI3Kα (P42336 whole entry): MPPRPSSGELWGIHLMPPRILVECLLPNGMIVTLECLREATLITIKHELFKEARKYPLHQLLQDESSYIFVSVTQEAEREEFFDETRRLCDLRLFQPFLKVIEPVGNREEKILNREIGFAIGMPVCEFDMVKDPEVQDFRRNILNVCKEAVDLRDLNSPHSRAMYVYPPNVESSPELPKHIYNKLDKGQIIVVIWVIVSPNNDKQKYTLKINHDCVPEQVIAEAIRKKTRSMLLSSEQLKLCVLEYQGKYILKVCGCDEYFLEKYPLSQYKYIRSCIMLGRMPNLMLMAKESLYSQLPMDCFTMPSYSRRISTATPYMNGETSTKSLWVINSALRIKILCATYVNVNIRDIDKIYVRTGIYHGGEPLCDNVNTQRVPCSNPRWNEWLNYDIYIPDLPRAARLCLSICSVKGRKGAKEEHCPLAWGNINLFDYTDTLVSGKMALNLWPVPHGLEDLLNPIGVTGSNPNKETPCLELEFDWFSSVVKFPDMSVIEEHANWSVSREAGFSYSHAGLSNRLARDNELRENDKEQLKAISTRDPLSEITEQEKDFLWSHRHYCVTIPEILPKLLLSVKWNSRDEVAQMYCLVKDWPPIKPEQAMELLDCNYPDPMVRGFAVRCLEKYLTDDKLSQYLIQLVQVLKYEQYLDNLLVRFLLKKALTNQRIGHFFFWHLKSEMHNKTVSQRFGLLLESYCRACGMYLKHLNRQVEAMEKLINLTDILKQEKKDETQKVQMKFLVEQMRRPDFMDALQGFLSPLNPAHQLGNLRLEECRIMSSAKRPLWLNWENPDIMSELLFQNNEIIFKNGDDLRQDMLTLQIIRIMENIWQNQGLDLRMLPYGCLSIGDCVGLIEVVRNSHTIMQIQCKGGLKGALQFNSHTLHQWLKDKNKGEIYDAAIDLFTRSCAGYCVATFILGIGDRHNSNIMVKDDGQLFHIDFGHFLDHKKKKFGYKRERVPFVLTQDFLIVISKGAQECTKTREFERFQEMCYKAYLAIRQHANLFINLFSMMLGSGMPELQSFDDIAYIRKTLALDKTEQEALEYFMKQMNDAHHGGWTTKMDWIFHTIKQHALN
Chain of PI3Kα (P27986 whole entry partner): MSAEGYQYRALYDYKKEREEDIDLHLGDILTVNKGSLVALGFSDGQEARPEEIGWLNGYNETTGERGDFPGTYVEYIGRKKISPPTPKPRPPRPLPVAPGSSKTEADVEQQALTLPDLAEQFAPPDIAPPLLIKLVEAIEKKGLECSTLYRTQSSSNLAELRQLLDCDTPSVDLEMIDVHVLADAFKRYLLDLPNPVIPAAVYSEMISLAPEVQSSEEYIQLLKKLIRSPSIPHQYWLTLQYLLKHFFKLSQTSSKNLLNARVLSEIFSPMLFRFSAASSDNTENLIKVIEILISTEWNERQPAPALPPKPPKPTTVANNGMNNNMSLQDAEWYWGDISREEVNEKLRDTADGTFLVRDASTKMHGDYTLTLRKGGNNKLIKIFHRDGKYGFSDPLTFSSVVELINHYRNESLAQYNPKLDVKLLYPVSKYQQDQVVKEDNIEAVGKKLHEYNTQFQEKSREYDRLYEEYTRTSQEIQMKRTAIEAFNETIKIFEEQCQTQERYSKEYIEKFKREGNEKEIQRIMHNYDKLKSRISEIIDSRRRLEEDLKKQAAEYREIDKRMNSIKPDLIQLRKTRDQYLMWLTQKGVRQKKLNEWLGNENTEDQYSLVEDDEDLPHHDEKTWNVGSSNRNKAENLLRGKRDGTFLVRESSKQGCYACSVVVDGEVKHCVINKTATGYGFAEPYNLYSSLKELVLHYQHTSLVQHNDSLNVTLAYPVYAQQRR

`COc1ccc(Nc2ncc(-c3ccccn3)cc2-c2nc(C)nc(N)n2)cn1` [Example 172, 5′-(4-Amino-6-Methyl-1,3,5-Triazin-2-yl)-N-(6-Methoxypyridin-3-yl)-2,3′-Bipyridin-6′-Amine] showed an IC50 [1] of 58 nM and a Ki [2] of 6 nM.

In the case of `COc1ncc(Nc2ncc([C@@H](C)N3CCOCC3)cc2-c2cc(N)nc(C)n2)cc1F` [Example 276, 6-(2-((5-Fluoro-6-Methoxy-3-Pyridinyl)Amino)-5-((1R)-1-(4-Morpholinyl)Ethyl)-3-Pyridinyl)-2-Methyl-4-Pyrimidinamine], the IC50 [1] is reported as 91 nM and the Ki [2] is reported as 17 nM.

For `COc1ccc(Nc2ncc(C(C)N3CCN(S(C)(=O)=O)CC3)cc2-c2nc(C)nc(N)n2)cn1` (stereo not drawn) [Example 144, 4-(2-(6-Methoxypyridin-3-Ylamino)-5-(1-(4-(Methylsulfonyl)Piperazin-1-yl)Ethyl)Pyridin-3-yl)-6-Methyl-1,3,5-Triazin-2-Amine], the IC50 [1] was 26 nM and the Ki [2] was 7 nM.

With `COc1ncc(Nc2nc(C)ccc2-c2nc(C)nc(N)n2)cc1F` [Example 197, 4-(2-(5-Fluoro-6-Methoxypyridin-3-Ylamino)-6-Methylpyridin-3-yl)-6-Methyl-1,3,5-Triazin-2-Amine] the IC50 [1] was 211 nM and the Ki [2] was 33 nM.

For `COc1ncc(Nc2ncc(CN3CCN(C(=O)N(C)C)CC3)cc2-c2nc(C)nc(N)n2)cc1F` [Example 159, 4-((5-(4-Amino-6-Methyl-1,3,5-Triazin-2-yl)-6-(5-Fluoro-6-Methoxypyridin-3-Ylamino)Pyridin-3-yl)Methyl)-N,N-Dimethylpiperazine-1-Carboxamide], the IC50 [1] was 11 nM and the Ki [2] was 11 nM.

With `COc1ncc(Nc2ncc([C@@H](C)N3CCOCC3)cc2-c2nc(C)nc(N)n2)cc1F` (single isomer, unassigned) [Example 291] the IC50 [1] was 7 nM and the Ki [2] was 37 nM.

With `Cc1nc(N)nc(-c2cc(CN3CCNCC3)cnc2Nc2ccc3[nH]cnc3c2)n1` [Example 261, N-(3-(4-Amino-6-Methyl-1,3,5-Triazin-2-yl)-5-(Piperazin-1-Ylmethyl)Pyridin-2-yl)-1H-Benzo[D]Imidazol-5-Amine] the IC50 [1] was 2720 nM and the Ki [2] was 69 nM.

`COc1ccc(Nc2ncc(CN3CC(N)C3)cc2-c2nc(C)nc(N)n2)cn1` [Example 231, 4-(5-((3-Aminoazetidin-1-yl)Methyl)-2-(6-Methoxypyridin-3-Ylamino)Pyridin-3-yl)-6-Methyl-1,3,5-Triazin-2-Amine] showed an IC50 [1] of 404 nM and a Ki [2] of 446 nM.

Compound `CNc1nc(C)nc(-c2cc(CN3CCN(S(C)(=O)=O)CC3)cnc2Nc2ccc(OC)nc2)n1` [Example 163, 4-(2-(6-Methoxypyridin-3-Ylamino)-5-((4-(Methylsulfonyl)Piperazin-1-yl)Methyl)Pyridin-3-yl)-N,6-Dimethyl-1,3,5-Triazin-2-Amine] has an IC50 [1] of 30 nM and a Ki [2] of 7 nM.

`COc1ccc(Nc2ncc(CNc3ccccn3)cc2-c2nc(C)nc3[nH]cnc23)cn1` [Example 82, N-(6-methoxypyridin-3-yl)-3-(2-methyl-9H-purin-6-yl)-5-((pyridin-2-ylamino)methyl)pyridin-2-amine] was tested, and the IC50 [1] was 226 nM and the Ki [2] was 25 nM.

In the case of `COc1ccc(Nc2ncc(CN3CCOC[C@@H]3C)cc2-c2nc(C)nc(N)n2)cn1` [Example 219, (S)-4-(2-(6-Methoxypyridin-3-Ylamino)-5-((3-Methylmorpholino)Methyl)Pyridin-3-yl)-6-Methyl-1,3,5-Triazin-2-Amine], the IC50 [1] is reported as 295 nM and the Ki [2] is reported as 93 nM.

Compound `Cc1nc(N)nc(-c2cc(CN3CCN(S(C)(=O)=O)CC3)cnc2Nc2cn[nH]c2)n1` [Example 243, 4-(2-(1H-Pyrazol-4-Ylamino)-5-((4-(Methylsulfonyl)Piperazin-1-yl)Methyl)Pyridin-3-yl)-6-Methyl-1,3,5-Triazin-2-Amine] has an IC50 [1] of 1520 nM and a Ki [2] of 163 nM.

With `COc1ncc(Nc2ncc(CN3CCOC[C@@H]3C)cc2-c2nc(C)nc(N)n2)cc1F` [Example 315, (S)-4-(2-(5-Fluoro-6-Methoxypyridin-3-Ylamino)-5-((3-Methylmorpholino)Methyl)Pyridin-3-yl)-6-Methyl-1,3,5-Triazin-2-Amine] the IC50 [1] was 31 nM and the Ki [2] was 27 nM.

In the case of `Cc1nc(N)nc(-c2cc(CN3CCN(S(C)(=O)=O)C[C@@H]3C)cnc2Nc2ccc(Cl)nc2)n1` [Example 318, (S)-4-(2-(6-Chloropyridin-3-Ylamino)-5-((2-Methyl-4-(Methylsulfonyl)Piperazin-1-yl)Methyl)Pyridin-3-yl)-6-Methyl-1,3,5-Triazin-2-Amine], the IC50 [1] is reported as 44 nM and the Ki [2] is reported as 32 nM.

With `Cc1nc(N)nc(-c2cc(CN3CCN(S(C)(=O)=O)CC3)cnc2Nc2ccc3ncoc3c2)n1` [Example 39, N-(3-(4-Amino-6-Methyl-1,3,5-Triazin-2-yl)-5-((4-(Methylsulfonyl)Piperazin-1-yl)Methyl)Pyridin-2-yl)Benzo[D]Oxazol-6-Amine] the IC50 [1] was 46 nM and the Ki [2] was 55 nM.

`COc1ncc(Nc2ncc(C(=O)N3CCC(O)CC3)cc2-c2nc(C)nc(N)n2)cc1F` [Example 176, (5-(4-amino-6-methyl-1,3,5-triazin-2-yl)-6-(5-fluoro-6-methoxypyridin-3-ylamino)pyridin-3-yl)(4-hydroxypiperidin-1-yl)methanone] was tested, and the IC50 [1] was 134 nM and the Ki [2] was 44 nM.

Compound `Cc1nc(N)nc(-c2cc(CN3CCOCC3)cnc2Nc2cnc(Cl)c(NS(C)(=O)=O)c2)n1` [Example 332, N-(5-(3-(4-Amino-6-Methyl-1,3,5-Triazin-2-yl)-5-(Morpholinomethyl)Pyridin-2-Ylamino)-2-Chloropyridin-3-yl)Methanesulfonamide] has a Ki [2] of 4 nM.

With `Cc1nc(N)nc(-c2cc(C(C)(C)O)cnc2Nc2cncc(S(=O)(=O)c3ccccc3)c2)n1` [Example 356, 2-(5-(4-Amino-6-Methyl-1,3,5-Triazin-2-yl)-6-(5-(Phenylsulfonyl)Pyridin-3-Ylamino)Pyridin-3-yl)Propan-2-ol] the Ki [2] was 58 nM.

`Cc1nc(N)nc(-c2cc(C(C)(C)O)cnc2Nc2cncc(F)c2)n1` [Example 352, 2-(5-(4-Amino-6-Methyl-1,3,5-Triazin-2-yl)-6-(5-Fluoropyridin-3-Ylamino)Pyridin-3-yl)Propan-2-ol] was tested, and the Ki [2] was 23 nM.

In the case of `COc1ncc(Nc2ncc(C(C)CO)cc2-c2nc(C)nc(N)n2)cc1F` (stereo not drawn) [Example 312, 2-(5-(4-amino-6-methyl-1,3,5-triazin-2-yl)-6-(5-fluoro-6-methoxypyridin-3-ylamino)pyridin-3-yl)propan-1-ol], the Ki [2] is reported as 2 nM.

For `Cc1nc(N)nc(-c2cc(CN3CCOCC3)cnc2Nc2cnc(Cl)c(NS(=O)(=O)N(C)C)c2)n1` [Example 333, N′-(5-((3-(4-Amino-6-Methyl-1,3,5-Triazin-2-yl)-5-(4-Morpholinylmethyl)-2-Pyridinyl)Amino)-2-Chloro-3-Pyridinyl)-N,N-Dimethylsulfamide], the Ki [2] was 7 nM.

With `COc1cncc(Nc2ncc(C(C)(C)O)cc2-c2nc(C)nc(N)n2)c1` [Example 353, 2-(5-(4-Amino-6-Methyl-1,3,5-Triazin-2-yl)-6-(5-Methoxypyridin-3-Ylamino)Pyridin-3-yl)Propan-2-ol] the Ki [2] was 15 nM.

`COc1ccc(Nc2ccccc2-c2nc(C)nc(N)n2)cn1` [Example 239, 4-(2-(6-Methoxypyridin-3-Ylamino)Phenyl)-6-Methyl-1,3,5-Triazin-2-Amine] gave a Ki [2] of 396 nM.

Work on `COc1ccc(Nc2nccnc2-c2nc(C)nc(N)n2)cn1` [Example 114, 4-(3-(6-methoxypyridin-3-ylamino)pyrazin-2-yl)-6-methyl-1,3,5-triazin-2-amine] yielded a Ki [2] of 327 nM.

With `Nc1cc(-c2cccnc2Nc2cccc3[nH]ncc23)nc(C(F)(F)F)n1` [Example 21, N-(3-(6-Amino-2-(Trifluoromethyl)Pyrimidin-4-yl)Pyridin-2-yl)-1H-Indazol-4-Amine] the Ki [2] was 3140 nM.

Compound `COc1ccc(Nc2cnccc2-c2nc(C)nc(N)n2)cn1` [Example 115, 4-(3-(6-methoxypyridin-3-ylamino)pyridin-4-yl)-6-methyl-1,3,5-triazin-2-amine] has a Ki [2] of 868 nM.

`Cc1nc(N)c(F)c(-c2cccnc2Nc2cccc3[nH]ncc23)n1` [Example 29, N-(3-(6-Amino-5-Fluoro-2-Methylpyrimidin-4-yl)Pyridin-2-yl)-1H-Indazol-4-Amine] was tested, and the Ki [2] was 802 nM.

With `COc1ccc(Nc2nccnc2-c2cc(N)nc(C)n2)cn1` [Example 116, 6-(3-(6-methoxypyridin-3-ylamino)pyrazin-2-yl)-2-methylpyrimidin-4-amine] the Ki [2] was 59 nM.

`COc1ncc(Nc2ncc(C(O)C(F)(F)F)cc2-c2nc(C)nc(N)n2)cc1F` (stereo not drawn) [Example 314, 1-(5-(4-Amino-6-Methyl-1,3,5-Triazin-2-yl)-6-(5-Fluoro-6-Methoxypyridin-3-Ylamino)Pyridin-3-yl)-2,2,2-Trifluoroethanol] gave a Ki [2] of 17 nM.

`COc1ncc(Nc2ncc(C(C)(C)CO)cc2-c2nc(C)nc(N)n2)cc1F` [Example 311, 2-(5-(4-amino-6-methyl-1,3,5-triazin-2-yl)-6-(5-fluoro-6-methoxypyridin-3-ylamino)pyridin-3-yl)-2-methylpropan-1-ol] was tested, and the Ki [2] was 8 nM.

Work on `COc1ncc(Nc2ncccc2-c2nc(C)nc(N)n2)cc1F` [Example 246, 4-(2-(5-Fluoro-6-Methoxypyridin-3-Ylamino)Pyridin-3-yl)-6-Methyl-1,3,5-Triazin-2-Amine] yielded a Ki [2] of 19 nM.

In the case of `Cc1nc(N)nc(-c2cccnc2Nc2ccc3oc(C)nc3c2)n1` [Example 165, N-(3-(4-Amino-6-Methyl-1,3,5-Triazin-2-yl)Pyridin-2-yl)-2-Methylbenzo[D]Oxazol-5-Amine], the IC50 [1] is reported as 2590 nM.

For `COc1ccc(Nc2ncc(CNc3cccnc3)cc2-c2nc(C)nc3[nH]cnc23)cn1` [Example 79, N-(6-methoxypyridin-3-yl)-3-(2-methyl-9H-purin-6-yl)-5-((pyridin-3-ylamino)methyl)pyridin-2-amine], the IC50 [1] was 72 nM.

Work on `COc1ncc(Nc2ncc(C(C)(C)O)cc2-c2nc(C)nc(N)n2)cc1F` [Example 273, 2-(5-(4-Amino-6-Methyl-1,3,5-Triazin-2-yl)-6-(5-Fluoro-6-Methoxypyridin-3-Ylamino)Pyridin-3-yl)Propan-2-ol] yielded a Ki [2] of 4 nM.

Compound `COc1ccc(Nc2ncncc2-c2nc(C)nc(N)n2)cn1` [Example 117, 4-(4-(6-methoxypyridin-3-ylamino)pyrimidin-5-yl)-6-methyl-1,3,5-triazin-2-amine] has a Ki [2] of 18 nM.
